These results are taken from US12084420B2, “Indoline compounds for inhibiting KIF18A” (Volastra Therapeutics, Inc., priority 2021, dated 2024).

Molecules are shown by their SMILES.

hKIF18A (1-374), sequence (Q8NI77 whole entry, looked up): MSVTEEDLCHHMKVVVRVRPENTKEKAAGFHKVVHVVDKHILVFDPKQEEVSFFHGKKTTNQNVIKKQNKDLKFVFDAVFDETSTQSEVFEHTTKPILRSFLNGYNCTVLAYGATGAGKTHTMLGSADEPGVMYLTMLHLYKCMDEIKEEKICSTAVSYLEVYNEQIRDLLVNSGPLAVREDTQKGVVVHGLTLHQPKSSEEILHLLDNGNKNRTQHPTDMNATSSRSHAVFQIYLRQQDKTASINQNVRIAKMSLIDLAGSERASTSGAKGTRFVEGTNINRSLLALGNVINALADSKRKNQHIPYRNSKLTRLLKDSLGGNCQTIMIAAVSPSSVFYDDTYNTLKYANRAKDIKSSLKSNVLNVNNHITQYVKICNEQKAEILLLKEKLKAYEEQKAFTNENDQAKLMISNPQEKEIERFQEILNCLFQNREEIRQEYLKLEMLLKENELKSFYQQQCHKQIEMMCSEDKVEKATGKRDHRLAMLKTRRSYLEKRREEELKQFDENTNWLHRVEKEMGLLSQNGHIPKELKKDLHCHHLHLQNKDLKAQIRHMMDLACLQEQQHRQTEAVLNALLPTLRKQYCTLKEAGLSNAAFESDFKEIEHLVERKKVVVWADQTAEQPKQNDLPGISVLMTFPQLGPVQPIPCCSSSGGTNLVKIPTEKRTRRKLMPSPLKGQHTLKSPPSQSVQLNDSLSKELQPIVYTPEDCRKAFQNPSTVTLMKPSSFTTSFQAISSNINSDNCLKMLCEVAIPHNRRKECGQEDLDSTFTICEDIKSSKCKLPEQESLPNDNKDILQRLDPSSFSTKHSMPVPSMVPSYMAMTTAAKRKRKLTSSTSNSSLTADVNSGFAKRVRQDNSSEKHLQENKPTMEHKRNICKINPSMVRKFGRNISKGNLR
hKIF18A (1-374), sequence (Q2XVP4 whole entry partner, looked up): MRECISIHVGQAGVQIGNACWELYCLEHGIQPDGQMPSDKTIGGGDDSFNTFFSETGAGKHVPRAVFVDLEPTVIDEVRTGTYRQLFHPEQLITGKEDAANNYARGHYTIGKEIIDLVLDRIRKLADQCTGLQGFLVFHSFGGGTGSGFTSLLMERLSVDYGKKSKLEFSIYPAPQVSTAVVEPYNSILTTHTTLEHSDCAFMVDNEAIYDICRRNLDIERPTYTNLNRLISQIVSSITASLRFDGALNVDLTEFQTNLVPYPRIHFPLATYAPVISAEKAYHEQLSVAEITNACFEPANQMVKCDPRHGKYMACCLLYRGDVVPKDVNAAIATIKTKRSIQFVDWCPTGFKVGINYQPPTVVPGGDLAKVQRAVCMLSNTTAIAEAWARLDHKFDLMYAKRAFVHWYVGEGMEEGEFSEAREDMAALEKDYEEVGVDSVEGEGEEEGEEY
hKIF18A (1-374), sequence (P02554 whole entry partner, looked up): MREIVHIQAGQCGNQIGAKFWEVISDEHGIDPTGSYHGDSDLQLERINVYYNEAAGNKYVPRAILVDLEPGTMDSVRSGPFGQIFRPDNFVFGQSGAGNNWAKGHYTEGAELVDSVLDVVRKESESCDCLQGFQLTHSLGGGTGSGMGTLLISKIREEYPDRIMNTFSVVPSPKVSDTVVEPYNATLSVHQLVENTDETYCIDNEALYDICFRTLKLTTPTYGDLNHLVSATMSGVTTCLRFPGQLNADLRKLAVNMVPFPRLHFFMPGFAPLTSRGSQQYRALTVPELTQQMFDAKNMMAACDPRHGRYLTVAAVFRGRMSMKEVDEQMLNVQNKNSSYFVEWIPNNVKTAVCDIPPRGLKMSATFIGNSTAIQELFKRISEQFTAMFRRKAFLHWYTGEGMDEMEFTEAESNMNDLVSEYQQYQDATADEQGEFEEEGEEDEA

One test has as its target hKIF18A (1-374) (Homo sapiens (Human), UniProt Q8NI77). The test can be described thus: Inhibition of KIF18A microtubule-dependent ATPase activity (ADP-Glo).
Conditions: not given
On the technique in general: In ADP-Glo the light output rises with the ADP produced.
On to `C[C@H]1CCN(S(=O)(=O)c2cccc(C(=O)N3CC4(CCC5(CC5)CC4)c4cc(NS(C)(=O)=O)ccc43)c2)C1` [(S)-Compound 249, (S)-N-(1″-(3-((3-methylpyrrolidin-1-yl)sulfonyl)benzoyl)dispiro[cyclopropane-1,1′-cyclohexane-4′,3″-indolin]-5″- yl)methanesulfonamide], for which the concentration for half-maximal inhibition (IC50) is 16 nM.

The test is the same for the next values; noted with them: KIF18A microtubule-dependent ATPase activity, biochemical assay.
As for `CS(=O)(=O)Nc1ccc2c(c1)C1(CCC3(CC3)CC1)CN2C(=O)c1ccc(O)c(S(=O)(=O)N2CC(F)(F)C2)c1` [Compound 303, N-(1″-(3-((3,3-difluoroazetidin-1-yl)sulfonyl)-4-hydroxybenzoyl)dispiro[cyclopropane-1,1′-cyclohexane-4′,3″-indolin]-5″-yl)methanesulfonamide], the half-inhibitory concentration (IC50) was determined as 8.2 nM. On to `CS(=O)(=O)Nc1ccc2c(c1)C1(CCC3(CC3)CC1)CN2C(=O)c1cccc([C@@H](O)C2CC(F)(F)C2)c1` [Compound 351b], for which it took 12 nM to reach half-maximal inhibition (IC50).

Take `C=C1CCC2(CC1)CN(C(=O)c1cccc(S(=O)(=O)NC(C)(C)C)c1)c1ccc(NS(C)(=O)=O)cc12` [Compound 324, N-(tert-butyl)-3-(4-methylene-5′-(methylsulfonamido)spiro[cyclohexane-1,3′-indoline]-1′-carbonyl)benzenesulfonamide]: the IC50 came to 21 nM. `CC(C)NS(=O)(=O)c1cccc(C(=O)N2CC3(CCCCC3)c3cc(NS(C)(=O)=O)ccc32)c1` [Compound 48, N-isopropyl-3-(5′-(methylsulfonamido)spiro[cyclohexane-1,3′-indoline]-1′-carbonyl)benzenesulfonamide] had an IC50 of 100 nM.

In turn, `CCS(=O)(=O)Nc1ccc2c(c1)C1(CCC3(CC3)CC1)CN2C(=O)c1ccc(C(O)C2CCCC2)o1` (single isomer, unassigned) [Compound 367b] showed an IC50 of 4.8 nM.

Molecule `CC(C)(C)NS(=O)(=O)c1ccc(F)c(C(=O)N2CC3(CCCCC3)c3cc(NS(C)(=O)=O)ccc32)c1` [Compound 97, N-(tert-butyl)-4-fluoro-3-(5′-(methylsulfonamido)spiro[cyclohexane-1,3′-indoline]-1′-carbonyl)benzenesulfonamide] returned a concentration for half-maximal inhibition (IC50) of 850 nM.

With `CS(=O)(=O)Nc1ccc2c(c1)C1(CCC3(CC3)CC1)CN2C(=O)c1ccc(F)c(S(=O)(=O)NC23CC(C2)C3)c1` [Compound 337, N-(bicyclo[1.1.1]pentan-1-yl)-2-fluoro-5-(5″-(methylsulfonamido)dispiro[cyclopropane-1,1′-cyclohexane-4′,3″-indoline]-1″- carbonyl)benzenesulfonamide], the 50% inhibitory concentration (IC50) worked out at 8.8 nM. In the case of `CC1CN(S(=O)(=O)c2cccc(C(=O)N3CC4(CCCCC4)c4cc(NS(C)(=O)=O)ccc43)c2)CCO1` (centres unmarked) [Compound 107, N-(1′-(3-((2-methylmorpholino)sulfonyl)benzoyl)spiro[cyclohexane-1,3′-indolin]-5′-yl)methanesulfonamide], the IC50 came to 470 nM. For `CCS(=O)(=O)Nc1ccc2c(c1)C1(CCC3(CC3)CC1)CN2C(=O)c1ccc([C@@H](O)C(C)(C)C)o1` (single isomer, unassigned) [Compound 372b], half-maximal inhibition (IC50) was put at 35 nM. Take `O=C(c1cccc(S(=O)(=O)N2CCC(F)(F)CC2)c1)N1CC2(CCCC2)c2ccccc21` [Compound 3, (3-((4,4-difluoropiperidin-1-yl)sulfonyl)phenyl)(spiro[cyclopentane-1,3′-indolin]-1′-yl)methanone]: the half-maximal inhibitory concentration (IC50) came out at 1600 nM.

Consider `CC1(C(O)c2cccc(C(=O)N3CC4(CCC5(CC5)CC4)c4cc(NS(C)(=O)=O)ccc43)c2)CCC1` (centres unmarked) [Compound 354, N-(1″-(3-(hydroxy(1-methylcyclobutyl)methyl)benzoyl)dispiro[cyclopropane-1,1′-cyclohexane-4′,3″-indolin]-5″- yl)methanesulfonamide], for which the IC50 came out at 14 nM. Still for that read-out and setting: the result for `CS(=O)(=O)Nc1ccc2c(c1)C1(CCC3(CC3)CC1)CN2C(=O)c1cccc(S(=O)(=O)NC(CO)C2CC2)c1` (centres unmarked) [Compound 214, N-(1-cyclopropyl-2-hydroxyethyl)-3-(5″- (methylsulfonamido)dispiro[cyclopropane-1,1′-cyclohexane-4′,3″-indoline]-1″-carbonyl)benzenesulfonamide] reads 80 nM; that for `CC(C)(C)[C@@H](O)c1ccc(C(=O)N2CC3(CCC4(CC4)CC3)c3cc(NS(C)(=O)=O)ccc32)o1` (single isomer, unassigned) [Compound 373a], 200 nM. `CS(=O)(=O)Nc1ccc2c(c1)C1(CCC3(CC3)CC1)CN2C(=O)c1cccc(C(O)CN2CC(F)(F)C2)c1` (centres unmarked) [Compound 314, N-(1″-(3-(2-(3,3-difluoroazetidin-1-yl)-1-hydroxyethyl)benzoyl)dispiro[cyclopropane-1,1′-cyclohexane-4′,3″-indolin]-5″-yl)methanesulfonamide]: the IC50 is 28 nM. Still for that read-out and setting: the result for `O=C(c1ccc(C(O)C2CCCC2)o1)N1CC2(CCC3(CC3)CC2)c2cc(NS(=O)(=O)CCO)ccc21` (single isomer, unassigned) [Compound 368b] reads 3.5 nM; that for `O=C(c1ccc(C(O)C2CCCC2)o1)N1CC2(CCC3(CC3)CC2)c2cc(NS(=O)(=O)CCO)ccc21` (single isomer, unassigned) [Compound 368a], 3 nM; that for `C=C1CN(S(=O)(=O)c2cccc(C(=O)N3CC4(CCC5(CC5)CC4)c4cc(NS(C)(=O)=O)ccc43)c2)C1` [Compound 258], 14 nM. Still for that read-out and setting: then `CC(=O)NCCCS(=O)(=O)Nc1ccc2c(c1)C1(CCC3(CC3)CC1)CN2C(=O)c1cccc(S(=O)(=O)NC(C)(C)C)c1` [Compound 292, N-(3-(N-(1″-(3-(N-(tert-butyl)sulfamoyl)benzoyl)dispiro [cyclopropane-1,1′-cyclohexane-4′,3″- indolin]-5″- yl)sulfamoyl)propyl)acetamide], with 22 nM. `CS(=O)(=O)Nc1ccc2c(c1)C1(CCC3(CC3)CC1)CN2C(=O)c1cccc(CN2CCC(F)(F)C2)c1` [Compound 349, N-(1″-(3-((3,3-difluoropyrrolidin-1-yl)methyl)benzoyl)dispiro [cyclopropane-1,1′-cyclohexane-4′,3″-indolin]-5″- yl)methanesulfonamide]: the IC50 amounted to 45 nM.

`CS(=O)(=O)Nc1ccc2c(c1)C1(CCC3(CC3)CC1)CN2C(=O)c1cccc(S(=O)(=O)NC2CC(O)C2)c1` (centres unmarked) [Compound 218, N-(3-hydroxycyclobutyl)-3-(5″- (methylsulfonamido)dispiro[cyclopropane-1,1′-cyclohexane-4′,3″-indoline]-1″-carbonyl)benzenesulfonamide]: the IC50 is 100 nM. In the case of `CS(=O)(=O)Nc1ccc2c(c1)C1(CCC3(CC3)CC1)CN2C(=O)c1cccc(C(O)C2CCCC2)c1` (centres unmarked) [Compound 165, N-(1″-(3-(cyclopentyl(hydroxy)methyl)benzoyl)dispiro[cyclopropane-1,1′-cyclohexane-4′,3″indolin]-5″- yl)methanesulfonamide], half-maximal inhibition (IC50) was put at 15 nM.

In the case of `Cn1cc(S(=O)(=O)NC(C)(C)C)cc1C(=O)N1CC2(CCCCC2)c2cc(NS(C)(=O)=O)ccc21` [Compound 145, N-(tert-butyl)-1-methyl-5-(5′-(methylsulfonamido)spiro[cyclohexane-1,3′-indoline]-1′-carbonyl)-1H-pyrrole-3-sulfonamide], half-maximal inhibition (IC50) required 290 nM.

`CS(=O)(=O)Nc1ccc2c(c1)[C@]1(CC[C@@H](C(F)F)CC1)CN2C(=O)c1cccc(S(=O)(=O)NC23CC(C2)C3)c1` [Compound 336a] showed an IC50 of 8.5 nM. Regarding `CC(C)(C)NS(=O)(=O)c1ccc(C(=O)N2CC3(CCCCC3)c3cc(NS(C)(=O)=O)ccc32)s1` [Compound 60, N-(tert-butyl)-5-(5′-(methylsulfonamido)spiro[cyclohexane-1,3′-indoline]-1′-carbonyl)thiophene-2-sulfonamide], the IC50 was determined as 1200 nM. For `O=C(c1cccc(S(=O)(=O)N2CCCCC2)c1)N1CC2(CCC3(CC3)CC2)c2ccccc21` [Compound 6, dispiro[cyclopropane-1,1′-cyclohexane-4′,3″-indolin]-1″-yl(3-(piperidin-1-ylsulfonyl)phenyl)methanone], half-maximal inhibition (IC50) required 580 nM. `CS(=O)(=O)Nc1ccc2c(c1)C1(CCC3(CC3)CC1)CN2C(=O)c1ccc(C(O)C2CC(F)(F)C2)o1` (centres unmarked) [Compound 369, N-(1″-(5-((3,3-difluorocyclobutyl)(hydroxy)methyl)furan-2-carbonyl)dispiro[cyclopropane-1,1′-cyclohexane-4′,3″-indolin]-5″- yl)methanesulfonamide] came in with a half-maximal inhibitory concentration (IC50) of 7.1 nM. Same read-out and setting: the result for `CS(=O)(=O)Nc1ccc2c(c1)C1(CCC3(CC3)CC1)CN2C(=O)c1cccc(CN2C[C@@H]3[C@H](C2)C3(F)F)c1` [Compound 358, N-(1″-(3-((6,6-difluoro-3-azabicyclo[3.1.0]hexan-3-yl)methyl)benzoyl)dispiro[cyclopropane-1,1′-cyclohexane-4′,3″-indolin]-5″- yl)methanesulfonamide] reads 28 nM. Molecule `Cc1cc(C(=O)N2CC3(CCC4(CC4)CC3)c3cc(NS(C)(=O)=O)ccc32)nc(CN2CCC(F)(F)CC2)n1` [Compound 343, N-(1″-(2-((4,4-difluoropiperidin-1-yl)methyl)-6-methylpyrimidine-4-carbonyl)dispiro[cyclopropane-1,1′-cyclohexane-4′,3″-indolin]-5″- yl)methanesulfonamide] came in with a concentration for half-maximal inhibition (IC50) of 810 nM. `CC(C)(C)[C@@H](O)c1ccc(C(=O)N2CC3(CCC4(CC4)CC3)c3cc(NS(=O)(=O)CCO)ccc32)o1` (single isomer, unassigned) [Compound 371a]: half-maximal inhibition (IC50) was put at 30 nM. `Cc1oc(C(=O)N2CC3(CCCCC3)c3cc(NS(C)(=O)=O)ccc32)cc1S(=O)(=O)NC(C)(C)C` [Compound 57, N-(tert-butyl)-2-methyl-5-(5′-(methylsulfonamido)spiro[cyclohexane-1,3′-indoline]-1′-carbonyl)furan-3-sulfonamide] gave an IC50 of 1100 nM. Regarding `CCS(=O)(=O)Nc1ccc2c(c1)C1(CCC3(CC3)CC1)CN2C(=O)c1cccc(S(=O)(=O)NC2CCC2)c1` [Compound 261, N-cyclobutyl-3-(5″- (ethylsulfonamido)dispiro[cyclopropane-1,1′-cyclohexane-4′,3″-indoline]-1″- carbonyl)benzenesulfonamide], half-maximal inhibition (IC50) was put at 9.3 nM.

As usually defined, the IC50 is the concentration that gives 50% inhibition. The low end stands for greater potency, the high end for weaker potency.
